In US8129371B2, “Thienopyrimidine and pyrazolopyrimidine compounds and their use as mTOR kinase and PI3 kinase inhibitors” (Wyeth LLC, priority 2007, dated 2012):
pIC50: −log10 of the molar value. Where two headings read alike, the source gives them in different places.

Experiments:
prostate line LNCap = experiment: In vitro cell culture growth assay (MTS), LNCap; assay type: cell-based; conditions: Homo sapiens, LNCaP, 72 h, LNCap cells, three days after drug treatment
Procedure, shortened: (§1)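 Inhibitors were added one day after plating, and viable cells were measured 3 days later by MTS conversion (absorbance 490 nm).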

Human mTOR (FLAG-TOR) = molecular target: T1, Human mTOR (FLAG-TOR) (Homo sapiens, UniProt P42345); experiment: Human mTOR kinase assay with purified enzyme, DELFIA format; assay type: biochemical
T1 construct: FLAG
Procedure, shortened: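 Purified FLAG-mTOR in HEPES pH 7.4 buffer with 10 mM MnCl2 was preincubated with inhibitor and reacted 2 h at room temperature with His6-S6K substrate, then stopped with EDTA/EGTA. Phospho-T389 S6K detected by DELFIA with Eu-labelled antibody (40 ng/mL) after plate capture; inhibition computed from signal.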

PI3K [1] = molecular target: T2, PI3K (Homo sapiens, UniProt P48736); experiment: Fluorescence polarization assay for PI3K; assay type: biochemical; conditions: read-out: PI3 Kinase γ IC50
T2 construct: PI3 Kinase γ IC50; other: PI3 Kinase γ; other: PI3 Kinase γ isoform, fluorescence polarization
Procedure, shortened: (§2)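 PI3K was preincubated with compound (final DMSO 1%), and the reaction was started with PIP2/ATP substrate and run 30–60 min. It was stopped with a detector mix giving 10 nM red probe and 70 nM GST-GRP.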

PI3K [2] = molecular target: T3, PI3K (Homo sapiens, UniProt P42336); experiment: Fluorescence polarization assay for PI3K; assay type: biochemical; conditions: read-out: PI3 Kinase α IC50
T3 construct: PI3 Kinase α IC50; other: PI3 Kinase α; other: PI3 Kinase α isoform, fluorescence polarization
Procedure, shortened: as §2

breast line MDA468 = experiment: In vitro cell culture growth assay (MTS), MDA468; assay type: cell-based; conditions: Homo sapiens, 72 h, MDA468 cells, three days after drug treatment
Procedure, shortened: as §1

T3 sequence (P42336 whole entry, canonical isoform): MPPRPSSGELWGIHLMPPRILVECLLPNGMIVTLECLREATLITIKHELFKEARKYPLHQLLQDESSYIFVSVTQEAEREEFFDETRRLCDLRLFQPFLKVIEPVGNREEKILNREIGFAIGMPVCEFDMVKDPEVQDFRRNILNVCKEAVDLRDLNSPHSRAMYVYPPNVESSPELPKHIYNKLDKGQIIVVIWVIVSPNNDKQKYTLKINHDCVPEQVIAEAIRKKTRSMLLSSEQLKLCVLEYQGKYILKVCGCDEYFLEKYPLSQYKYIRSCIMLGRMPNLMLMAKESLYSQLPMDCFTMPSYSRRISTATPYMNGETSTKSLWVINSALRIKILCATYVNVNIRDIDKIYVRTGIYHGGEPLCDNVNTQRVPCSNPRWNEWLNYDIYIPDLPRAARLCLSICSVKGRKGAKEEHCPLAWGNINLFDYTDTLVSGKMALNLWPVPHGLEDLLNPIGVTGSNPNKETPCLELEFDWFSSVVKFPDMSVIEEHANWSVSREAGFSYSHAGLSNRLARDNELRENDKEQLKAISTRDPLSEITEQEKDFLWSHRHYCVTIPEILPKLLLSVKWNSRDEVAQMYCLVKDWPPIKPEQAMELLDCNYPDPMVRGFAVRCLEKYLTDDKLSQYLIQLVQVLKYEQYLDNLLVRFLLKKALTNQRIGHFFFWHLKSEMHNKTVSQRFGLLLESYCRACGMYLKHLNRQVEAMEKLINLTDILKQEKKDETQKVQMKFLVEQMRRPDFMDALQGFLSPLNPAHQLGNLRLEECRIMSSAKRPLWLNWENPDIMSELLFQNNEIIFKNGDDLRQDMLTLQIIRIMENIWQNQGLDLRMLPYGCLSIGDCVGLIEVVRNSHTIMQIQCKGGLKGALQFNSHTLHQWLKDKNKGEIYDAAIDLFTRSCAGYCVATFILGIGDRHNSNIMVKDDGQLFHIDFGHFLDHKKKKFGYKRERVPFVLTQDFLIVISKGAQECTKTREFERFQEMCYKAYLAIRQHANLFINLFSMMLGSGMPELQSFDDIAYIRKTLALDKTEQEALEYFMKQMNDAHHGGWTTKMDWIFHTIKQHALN
T2 sequence (P48736 whole entry, canonical isoform): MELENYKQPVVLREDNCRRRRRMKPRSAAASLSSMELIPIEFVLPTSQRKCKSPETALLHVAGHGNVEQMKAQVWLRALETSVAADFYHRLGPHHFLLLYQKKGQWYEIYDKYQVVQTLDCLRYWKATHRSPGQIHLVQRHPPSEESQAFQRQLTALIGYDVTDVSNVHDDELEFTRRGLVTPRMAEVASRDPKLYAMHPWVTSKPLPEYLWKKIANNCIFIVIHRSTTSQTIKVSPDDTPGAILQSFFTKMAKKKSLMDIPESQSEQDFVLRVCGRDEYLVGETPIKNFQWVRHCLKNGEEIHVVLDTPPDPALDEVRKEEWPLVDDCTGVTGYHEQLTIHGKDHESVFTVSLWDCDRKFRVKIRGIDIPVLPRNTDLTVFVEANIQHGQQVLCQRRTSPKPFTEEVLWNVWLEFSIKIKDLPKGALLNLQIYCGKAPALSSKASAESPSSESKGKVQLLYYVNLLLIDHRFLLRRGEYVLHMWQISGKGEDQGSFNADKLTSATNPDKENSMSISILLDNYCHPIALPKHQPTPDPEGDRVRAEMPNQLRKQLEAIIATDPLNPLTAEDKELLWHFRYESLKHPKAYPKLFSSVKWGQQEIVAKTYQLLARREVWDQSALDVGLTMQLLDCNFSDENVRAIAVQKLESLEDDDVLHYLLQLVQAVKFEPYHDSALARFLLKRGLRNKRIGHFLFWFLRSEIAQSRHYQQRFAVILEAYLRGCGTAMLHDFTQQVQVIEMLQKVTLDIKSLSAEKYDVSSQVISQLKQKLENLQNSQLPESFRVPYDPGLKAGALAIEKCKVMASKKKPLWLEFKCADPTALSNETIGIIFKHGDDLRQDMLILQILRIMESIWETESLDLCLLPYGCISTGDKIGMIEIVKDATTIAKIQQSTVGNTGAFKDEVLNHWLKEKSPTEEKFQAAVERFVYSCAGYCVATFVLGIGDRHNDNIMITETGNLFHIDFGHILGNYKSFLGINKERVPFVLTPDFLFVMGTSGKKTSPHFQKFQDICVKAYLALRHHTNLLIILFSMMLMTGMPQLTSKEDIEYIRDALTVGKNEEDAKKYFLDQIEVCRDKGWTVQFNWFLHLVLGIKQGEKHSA

SMILES | pIC50 (prostate line LNCap) | pIC50 (Human mTOR (FLAG-TOR); purified human mTOR enzyme, DELFIA format) | pIC50 (PI3K [1]; PI3 Kinase γ isoform, fluorescence polarization) | pIC50 (PI3K [2]; PI3 Kinase α isoform, fluorescence polarization) | pIC50 (breast line MDA468) | pIC50 (Human mTOR (FLAG-TOR)) | pIC50 (PI3K [1]; PI3 Kinase γ) | pIC50 (PI3K [2]; PI3 Kinase α)
CN1CCN(c2ccc(NC(=O)Nc3ccc(-c4nc(N5CC6CCC(C5)O6)c5cnn(C6CCC(=O)CC6)c5n4)cc3)cc2)CC1 [Example 400, 1-[4-(4-methylpiperazin-1-yl)phenyl]-3-{4-[4-(8-oxa-3-azabicyclo[3.2.1]oct-3-yl)-1-(4-oxocyclohexyl)-1H-pyrazolo[3,4-d]pyrimidin-6-yl]phenyl}urea] | > 9.00 | 9.47 | 5.70 | 6.78 | > 9.00 | – | – | –
CC(C)OC(=O)N1CCC(n2ncc3c(N4CC5CCC(C4)O5)nc(-c4ccc(NC(=O)NCCF)cc4)nc32)CC1 [Example 68, isopropyl 4-[6-(4-{[(2-fluoroethyl)carbamoyl]amino}phenyl)-4-(8-oxa-3-azabicyclo[3.2.1]oct-3-yl)-1H-pyrazolo[3,4-d]pyrimidin-1-yl]piperidine-1-carboxylate] | 7.74 | – | – | – | 6.74 | 9.57 | < 5.00 | 5.50
CCn1ncc2c(N3CC4CCC(C3)O4)nc(-c3ccc(NC(=O)Nc4ccc(CCO)cc4)cc3)nc21 [Example 183, 1-{4-[1-ethyl-4-(8-oxa-3-azabicyclo[3.2.1]oct-3-yl)-1H-pyrazolo[3,4-d]pyrimidin-6-yl]phenyl}-3-[4-(2-hydroxyethyl)phenyl]urea] | > 9.00 | – | – | – | > 9.00 | 9.92 | 5.82 | 7.17
CN1CCN(CCNC(=O)Nc2ccc(-c3nc(N4CC5CCC(C4)O5)c4cnn(C5CCC6(CC5)OCCO6)c4n3)cc2)CC1 [Example 134, 1-{4-[1-(1,4-dioxaspiro[4.5]dec-8-yl)-4-(8-oxa-3-azabicyclo[3.2.1]oct-3-yl)-1H-pyrazolo[3,4-d]pyrimidin-6-yl]phenyl}-3-[2-(4-methylpiperazin-1-yl)ethyl]urea] | 6.41 | – | – | – | 5.40 | 7.76 | < 5.00 | 5.61
O=C(Nc1ccc(-c2nc(N3CC4CCC(C3)O4)c3cnn(CCF)c3n2)cc1)OCCO [Example 245, 2-hydroxyethyl {4-[1-(2-fluoroethyl)-4-(8-oxa-3-azabicyclo[3.2.1]oct-3-yl)-1H-pyrazolo[3,4-d]pyrimidin-6-yl]phenyl}carbamate] | 6.89 | – | – | – | 6.05 | 8.92 | < 5.00 | 5.54
COC(=O)N1CCC(n2ncc3c(N4CC5CCC(C4)O5)nc(-c4ccc(NC(=O)OCCN5CCN(C)CC5)cc4)nc32)CC1 [Example 118, methyl 4-{6-[4-({[2-(4-methylpiperazin-1-yl)ethoxy]carbonyl}amino)phenyl]-4-(8-oxa-3-azabicyclo[3.2.1]oct-3-yl)-1H-pyrazolo[3,4-d]pyrimidin-1-yl}piperidine-1-carboxylate] | 5.55 | – | – | – | 5.33 | < 6.10 | < 5.00 | 5.09
COC(=O)N1CCC(n2ncc3c(N4CC5CCC(C4)O5)nc(-c4ccc(NC(=O)Nc5ccccc5)cc4)nc32)CC1 [Example 11, methyl 4-[4-(8-oxa-3-azabicyclo[3.2.1]oct-3-yl)-6-{4-[(phenylcarbamoyl)amino]phenyl}-1H-pyrazolo[3,4-d]pyrimidin-1-yl]piperidine-1-carboxylate] | 8.00 | – | – | – | 6.92 | 9.43 | 5.17 | 6.57
CNC(=O)Nc1ccc(-c2nc(N3C[C@@H]4C[C@H]3CO4)c3cnn(CC(F)(F)F)c3n2)cc1 [Example 292, 1-methyl-3-(4-{4-[(1S,4S)-2-oxa-5-azabicyclo[2.2.1]hept-5-yl]-1-(2,2,2-trifluoroethyl)-1H-pyrazolo[3,4-d]pyrimidin-6-yl}phenyl)urea] | 7.10 | – | – | – | 6.52 | 8.26 | < 5.00 | 5.68
CCn1ncc2c(N3CC4CCC(C3)O4)nc(-c3ccc(NC(=O)NCC4CCN(C)CC4)cc3)nc21 [Example 226, 1-{4-[1-ethyl-4-(8-oxa-3-azabicyclo[3.2.1]oct-3-yl)-1H-pyrazolo[3,4-d]pyrimidin-6-yl]phenyl}-3-[(1-methylpiperidin-4-yl)methyl]urea] | 6.15 | – | – | – | 5.89 | 6.64 | < 5.00 | 5.38
Cn1ncc2c(N3CC4CCC(C3)O4)nc(-c3ccc(NC(=O)Nc4ccncc4)cc3)nc21 [Example 57, 1-{4-[1-methyl-4-(8-oxa-3-azabicyclo[3.2.1]oct-3-yl)-1H-pyrazolo[3,4-d]pyrimidin-6-yl]phenyl}-3-pyridin-4-ylurea] | 9.10 | – | – | – | 8.05 | 9.74 | 6.11 | 6.79
COC(=O)N1CCC(n2ncc3c(N4CC5CCC(C4)O5)nc(-c4ccc(NC(=O)Nc5ccccc5CO)cc4)nc32)CC1 [Example 172, methyl 4-{6-[4-({[2-(hydroxymethyl)phenyl]carbamoyl}amino)phenyl]-4-(8-oxa-3-azabicyclo[3.2.1]oct-3-yl)-1H-pyrazolo[3,4-d]pyrimidin-1-yl}piperidine-1-carboxylate] | 6.70 | – | – | – | 5.89 | 8.52 | 5.76 | 5.86
